Data on three compounds can be found in patent publication US4810635A, “Specific binding assays employing label analog to reduce sample interferences” (Miles Inc., priority 1986, dated 1989).

Test [1] has as its system riboflavin-binding monoclonal antibody (IgGλ monoclonal anti-flavin antibody) in the serum of a patient with multiple myeloma. The following applies: cited from earlier work; for binding to the antibody relative to riboflavin: competitive-binding studies with flavin analogs and [14C]-labeled riboflavin.
The target of test [2] is apoglucose oxidase (Aspergillus niger, UniProt P13006). Put plainly: hCG ARIS assay: recombination of hCG-FAD conjugate with apoglucose oxidase, with or without FMN. The format is biochemical. To be noted: 10 μM FMN, 5 nM hCG-FAD conjugate, no serum. The procedure: In order to study the effect of flavin analogs in low level protein ARIS assays, a series of experiments were performed. In all cases the following manual assay protocol was employed. FAD-conjugate was incubated in 2.0 mL of assay mixture containing 10 mM DHSA, 0.1M glucose, 25 μg/mL horseradish peroxidase, 0.1% bovine serum albumin (BSA) in 0.1 M sodium phosphate at pH 7.0 with or without 5% serum and/or 10 μM FMN. After 30 minutes at 37° C., 100 μL of apoglucose oxidase/antiglucose oxidase (3 μM apoenzyme) in 50% glycerol and 4 μM 4-aminoantipyrene was added to initiate the reaction. Following a 30 minute assay incubation step at 37° C. the absorbance was measured at 520 nm.
Two controls were performed during this experiment: (1) conjugate, no serum, no FMN (maximum activity) and (2) conjugate, no serum, plus FMN (assess FMN effect on maximum activity).

The Kd is the concentration at which binding is half-saturated.

Chain of apoglucose oxidase (P13006 23-605 limits assumed): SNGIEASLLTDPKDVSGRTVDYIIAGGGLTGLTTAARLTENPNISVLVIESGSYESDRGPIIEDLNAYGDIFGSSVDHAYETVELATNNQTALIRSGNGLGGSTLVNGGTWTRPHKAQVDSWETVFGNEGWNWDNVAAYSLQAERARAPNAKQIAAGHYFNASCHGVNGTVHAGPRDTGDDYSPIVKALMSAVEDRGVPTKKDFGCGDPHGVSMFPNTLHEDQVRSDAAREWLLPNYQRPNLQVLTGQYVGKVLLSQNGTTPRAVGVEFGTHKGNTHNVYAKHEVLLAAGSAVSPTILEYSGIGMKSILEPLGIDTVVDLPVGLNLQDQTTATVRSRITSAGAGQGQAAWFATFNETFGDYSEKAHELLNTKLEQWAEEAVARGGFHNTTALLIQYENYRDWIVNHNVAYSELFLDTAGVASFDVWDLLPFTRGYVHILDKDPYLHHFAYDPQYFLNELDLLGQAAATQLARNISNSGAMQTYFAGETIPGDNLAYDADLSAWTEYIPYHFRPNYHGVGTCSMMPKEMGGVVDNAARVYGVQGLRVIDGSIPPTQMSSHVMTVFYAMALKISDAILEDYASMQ

As to `Cc1cc2nc3c(=O)[nH]c(=O)nc-3n(C[C@H](O)[C@H](O)[C@H](O)COP(=O)(O)OP(=O)(O)OC[C@H]3O[C@@H](n4cnc5c(N)ncnc54)[C@H](O)[C@@H]3O)c2cc1C` [FAD, flavin adenine dinucleotide], the “binding to the antibody relative to riboflavin” value in test [1] is “bound strongly to the antibody but not as tightly as FMN or riboflavin”.

Regarding `Cc1cc2nc3c(=O)[nH]c(=O)nc-3n(C[C@H](O)[C@H](O)[C@H](O)COP(=O)(O)O)c2cc1C` [FMN, flavin mononucleotide], the “binding to the antibody relative to riboflavin” value in test [1] is “bound equally well to this antibody as riboflavin”. For the same compound, the inhibition at 10 µM in test [2] (read-out: decrease of the maximum activity of the conjugate) is ~9%. Further, the activity at 10 µM in test [2] (relative to conjugate without FMN (maximum activity)) turned out to be 91%. For the compound `Cc1cc2nc3c(=O)[nH]c(=O)nc-3n(C[C@H](O)[C@H](O)[C@H](O)CO)c2cc1C` [riboflavin], in test [1] (high affinity (reversible) flavin-binding site), the equilibrium dissociation constant (Kd) was 600 pM.
